Test results published in patent US20070208087A1, “Compounds, compositions and methods for the treatment of inflammatory diseases” (priority 2001, published 2007).
Values joined by “and” are separate entries in the source; they are usually repeats but may differ in a detail not shown here. Equal entries are not always repeated. Where two headings read alike, the source gives them in different places.

Assays:
Assay type in all cases: cell-based
[1] = test system: EOC 13.31 microglial cells; assay: NO release inhibition screen in LPS/IFNγ stimulated microglia, Griess reaction at 48 hours (Example 7); details: for μM NO release Avg / % inhibition / inhibition at 50 µM: 50 uM + 10 μg/ml LPS/10 ng/ml IFNγ, 48 hours; for % inhibition: 50 µM; for inhibition at 50 µM: Microglia, 48 h; for inhibition of NO release, in words: 50 uM, LPS/IFNγ stimulated microglia
Procedure: In this experiment, additional bis- and tris-dihydroxyaryl compounds were screened for their ability to inhibit nitric oxide release from microglial cells. Microglial cells stimulated with LPS/IFNγ release nitric oxide. […] This is a continuation of screening experiments. EOC 13.31 microglial cells were plated into 96 well plates. At 24 hours and at confluency, cells were treated with 10 μg/ml LPS/10 ng/ml IFNγ+50 uM bis- and tris-dihydroxyaryl compounds.

[2] = test system: TNF-α release from microglia; assay: TNF-α release from LPS/IFNγ stimulated microglia, TNF-α ELISA (Example 11); details: for % inhibition: individual replicates; for inhibition at 50 µM: Microglia; for TNF-α ELISA raw reading (not NO; the printed μM unit is unsupported): 3 replicates
Procedure: Also, bis- and tris-dihydroxyaryl compound's ability to inhibit NO release strongly supports their interference with the inflammatory cascade and utlimately inhibition of inflammation. Microglia cells were plated at 1×10^5 cells/ml into 96 well plates. At day three, they were treated with 50 μM bis- and tris-dihydroxyaryl compound for 1 hour and then exposed to 10 μg/ml LPS+10 ng/ml IFNγ for 24 hours. 10 μl of media was removed and stored at −80° until TNF-α ELISA assays were performed. Samples were diluted 1:50 before running the TNF-α ELISA (kit commercially available from Sigma).

microglia = assay: Ranking of NO release inhibition (Example 12); details: Microglia, ranking table
Excerpt: The bis- and tris-dihydroxyaryl compounds were ranked in order of effectiveness for the inhibition of NO release as set out in Table 8.

[3] = test system: EOC 13.31 microglia cells; assay: Inhibition of NO release from microglia following 24 hours pretreatment (Example 10); details: for inhibition at 50 µM: Microglia
Procedure: This experiment was designed to determine if pretreatment for 24 hours with bis- and tris-dihydroxyaryl compounds changes NO inhibition previously observed with concurrent exposure of bis- and tris-dihydroxyaryl compounds. […] This study seeks to determine if pretreatment with bis- and tris-dihydroxyaryl compounds increases NO release inhibition. EOC 13.31 microglia cells were plated at 1×10^6 cells/ml in 96 well plates. After 48 hours, confluent cells were exposed to 50 μM compound (stock 10 mM in DMSO) prepared in fresh cell culture media. After 24 hours, 10 μg/ml LPS and 10 ng/ml IFNγ was added to wells directly without a media change. Cells were incubated for a further 48 hours and nitric oxide release was measured using the Griess Reaction.

[4] = test system: EOC 13.31 microglia cells; assay: NO release inhibition in LPS/IFNγ stimulated microglia, concurrent treatment, Griess reaction at 24 hours (Example 6); details: 24 hours; for NO release, Avg: 50 μM; for inhibition at 50 µM: Microglia
Procedure: The purpose of this experiment was to screen compounds 3, 4, 21, 26, 51, 52, 66, and 78 for their ability to inhibit Nitric oxide release from microglia. […] EOC 13.31 microglia cells were plated into 96 well plates for 24 hours. Confluent cells were treated with 50 μM of the bis- and tris-dihydroxyaryl compounds either with or without stimulation at 1 pg/ml LPS, and 1 ng/ml IFNγ. NO release was measured at 24 hours using the Griess reaction which is a spectrophotometric measure of NO release (reagents from Promega).

[5] = single replicates, read-out: % inhibition
[6] = 50 uM compound, TNF-α release, 10 ug LPS and 10 ng IFNγ, 24 hours, 50 µM
[7] = 24 h, 50 uM compound, TNF-α release, 10 ug LPS and 10 ng IFNγ, 24 hours, read-out: Avg % Inhibition
[8] = 50 μM pretreatment, read-out: inhibition of NO release following pretreatment
[9] = 50 uM compound, 10 ug LPS and 10 ng IFNγ, 24 hours
[10] = 50 uM pretreatment 24 hours, then LPS/IFNγ 48 hours, single replicates
[11] = 50 uM compound, TNF-α release, 10 ug LPS and 10 ng IFNγ, 24 hours
[12] = 50 uM pretreatment 24 hours, then LPS/IFNγ 48 hours, read-out: Avg % Inhibition
[13] = 50 uM pretreatment 24 hours, then LPS/IFNγ 48 hours, single replicates, read-out: % inhibition

SMILES	μM NO release Avg [1]	% inhibition ([1]; single replicates)	inhibition at 50 µM ([1]; read-out: Avg. % Inhibition)	inhibition at 50 µM [1, 5]	% inhibition [2, 6]	inhibition at 50 µM (microglia)	TNF-α ELISA raw reading (not NO; the printed μM unit is unsupported) [2, 9]	Avg % Inhibition [2, 11]	also measured
O=C(c1ccc(O)c(O)c1)C(O)c1ccc(O)c(O)c1 (stereo not drawn) [Compound 1, 3,4,3′,4′-tetrahydroxybenzoin]	22.038 µM	20.29% and 18.62%	18.4%	16.4%	−16.55% and −17.04% and −18.19%	18%	–	–	inhibition at 50 µM [2, 7]: -17.3%
CN1C2CCC1C(Cc1ccc(O)c(O)c1)C(=O)C2Cc1ccc(O)c(O)c1 (stereo not drawn) [Compound 19, 2,4-bis(3,4-dihydroxybenzyl)-3-tropinone]	25.828 µM	5.75% and 3.45%	4.41%	4.02%	–	4%	–	–	inhibition at 50 µM [3, 8]: > 75%
O=C(Nc1ccc(O)c(O)c1)c1ccc(O)c(O)c1 [Compound 51-1]	–	–	–	–	−17.57% and −12.94% and −13.42%	–	0.880 µM and 0.883 µM and 0.909 µM	–	Avg % Inhibition [2, 6]: −14.64%
O=C(c1ccc(O)c(O)c1)N1CCN(C(=O)c2ccc(O)c(O)c2)CC1 [Compound 23, 1,4-bis(3,4-dihydroxybenzoyl)piperazine]	23.394 µM	13.60% and 9.70%	13.4%	16.9%	−23.78% and −15.89% and −17.96%	13%	–	–	inhibition at 50 µM [2, 7]: -19.2%
CN1C2CCC1C(Cc1ccc(O)c(O)c1)C(=O)C2Cc1ccc(O)c(O)c1 (stereo not drawn) [Compound 19-2]	–	–	–	–	7.78% and 8.44% and 12.05%	–	0.730 µM and 0.708 µM and 0.734 µM	9.42%	Avg % Inhibition ([3]; 50 uM pretreatment 24 hours, then LPS/IFNγ 48 hours): 82.93%; % inhibition [3, 10]: 73.11% and 91.80% and 83.87%; OD values (printed under head μM NO release) [3, 10]: 0.135 and 0.161 and 0.195; μM NO release [3, 10]: 1.620 µM and 3.188 µM and 5.313 µM
O=C(C=Cc1ccc(O)c(O)c1)NCc1ccc(O)c(O)c1 [Compound 61, 3,4-dihydroxycinnamic acid 3,4-dihydroxybenzylamide]	21.285 µM	19.18% and 24.19%	21.2%	20.3%	−3.40% and −17.04% and −7.51%	21%	–	–	inhibition of NO release, in words [1]: effective inhibitors of NO release; inhibition at 50 µM [2, 7]: -9.32%
O=C(Nc1ccc(O)c(O)c1)Nc1ccc(O)c(O)c1 [Compound 76, 1,3-bis(3,4-dihydroxyphenyl)urea]	23.745 µM	11.52% and 12.60%	14.4%	19.1%	–	14%	–	–	% inhibition [3, 10]: 75.64% and 78.81%; inhibition at 50 µM [3, 12]: 76.3%; inhibition at 50 µM [3, 13]: 74.4%; inhibition at 50 µM [3, 8]: > 75%
O=C(Nc1ccc(O)c(O)c1)c1ccc(O)c(O)c1 [Compound 51, 3,4-dihydroxybenzoic acid 3,4-dihydroxyanilide]	–	–	–	–	–	–	–	–	NO release, Avg ([4]; Compound + LPS/IFNγ): 20.6633 µM; NO release, Avg ([4]; Compound Only (without LPS/IFNγ)): 1.2500 µM; inhibition at 50 µM ([4]; Compound + LPS/IFNγ, read-out: % inhibition of NO release): -11%; inhibition at 50 µM ([4]; Table 2 summary, LPS/IFNγ, read-out: % Inhibition (summary of inhibition of NO release)): -11%; % inhibition [3, 10]: 47.81% and 59.20%; inhibition at 50 µM [3, 12]: 56%; inhibition at 50 µM [3, 13]: 61.1%
O=C(NCc1ccc(O)c(O)c1)Nc1ccc(O)c(O)c1 [Compound 77-1]	–	–	–	–	4.66% and 4.16% and −1.10%	–	0.756 µM and 0.788 µM and 0.753 µM	2.58%	–
O=C(CCC(=O)Nc1ccc(O)c(O)c1)Nc1ccc(O)c(O)c1 [Compound 66-2]	–	–	–	–	−14.08% and −17.70% and −9.32%	–	0.889 µM and 0.838 µM and 0.867 µM	−13.70%	–
C[C@@H]1C[C@H]2[C@@H]3CCC4=CC(=O)C=C[C@]4(C)[C@@]3(F)[C@@H](O)C[C@]2(C)[C@@]1(O)C(=O)CO [Dexamethasone, reference compound]	–	–	–	–	–	–	–	–	inhibition at 50 µM ([2]; 50 μM for 1 hour, then 10 μg/ml LPS + 10 ng/ml IFNγ for 24 hours, read-out: inhibition of TNF-α release): 72.4%
O=C(NCc1ccc(O)c(O)c1)C(=Cc1ccc(O)c(O)c1)NC(=O)c1ccc(O)c(O)c1 [Compound 21-2]	–	–	–	–	−25.92% and −23.45% and −20.16%	–	0.924 µM and 0.904 µM and 0.939 µM	−23.18%	–
Oc1ccc(CN2CCN(Cc3ccc(O)c(O)c3)CC2)cc1O [Compound 9, 1,4-bis(3,4-dihydroxybenzyl)piperazine]	26.299 µM	−0.57% (2×) and 9.14%	2.66%	–	–	3%	–	–	–
O=C(NCc1ccc(O)c(O)c1)Nc1ccc(O)c(O)c1 [Compound 77, 1-(3,4-dihydroxyphenyl)-3-(3,4-dihydroxybenzyl)urea]	24.398 µM	9.89%	12.1%	14.2%	–	12%	–	–	% inhibition [3, 10]: 99.39%; inhibition at 50 µM [3, 12]: 96.8%; inhibition at 50 µM [3, 13]: 91.8%; inhibition at 50 µM [3, 8]: > 75%
Oc1ccc(CN[C@@H]2CCCC[C@H]2NCc2ccc(O)c(O)c2)cc1O (relative stereo) [Compound 12, N,N′-bis(3,4-dihydroxybenzyl)-trans-1,2-diaminocyclohexane]	18.976 µM	26.72% and 33.23%	31.6%	34.9%	15.81% and 25.24% and 10.54%	32%	–	–	inhibition of NO release, in words [1]: effective inhibitors of NO release; inhibition at 50 µM [2, 7]: 17.2%
Cc1nc(-c2ccc(O)c(O)c2)cc(-c2ccc(O)c(O)c2)c1C#N [Compound 8, 4,6-bis(3,4-dihydroxyphenyl)-3-cyano-2-methylpyridine]	25.265 µM	8.03% and 2.30% and 9.14%	6.49%	–	–	92%	–	–	–
O=C(Nc1ccc(O)c(O)c1)c1ccc(O)c(O)c1 [Compound 51-4]	–	–	–	–	−20.13% and −17.25% and −11.34%	–	0.907 µM and 0.870 µM and 0.925 µM	–	Avg % Inhibition [2, 6]: −16.24%
Oc1ccc(Cc2ccc(O)c(O)c2)cc1O [Compound 3-2]	–	–	–	–	28.11% and 32.65% and 27.48%	–	0.593 µM and 0.627 µM and 0.623 µM	29.41%	–
Oc1ccc(CCc2ccc(O)c(O)c2)cc1O [Compound 4-3]	–	–	–	–	88.39% and 91.14% and 90.14%	–	0.177 µM and 0.185 µM and 0.199 µM	89.89%	inhibition of TNF-α release ([2]; 50 μM for 1 hour, then 10 μg/ml LPS + 10 ng/ml IFNγ for 24 hours): 89%
O=C(Nc1ccc(O)c(O)c1)Nc1ccc(O)c(O)c1 [Compound 76-2]	–	–	–	–	−8.66% and −11.12% and −9.64%	–	0.849 µM and 0.840 µM and 0.834 µM	−9.81%	–
